Data from patent publication US20240042046A1, “METHODS AND COMPOUNDS FOR MODULATING HUNTINGTON'S DISEASE” (Design Therapeutics, Inc., priority 2022, published 2024).
pIC50: −log10 of the molar value.

What was measured:
[1] = test system: human HTT mRNA, SNP rs362331 C allele, GM09197 fibroblasts; experiment: Screening of HD molecules in GM09197 fibroblasts, allele-specific HTT mRNA by RT-PCR, C allele; assay type: cell-based; details: for GM 09197 E min 48 Hr C Allele (%): Emin = lowest % HTT observed within compound concentration 0.5 nM to 1000 nM; for pIC50: Homo sapiens, Fibroblast, 48-hour incubation, C allele HTT mRNA normalized to GAPDH, relative to vehicle
Protocol: (§1) Molecular Biology Toolkit: • qPCR primer probe sets: • RNA input normalization was assessed utilizing human glyceraldehyde 3-phosphate dehydrogenase (hGAPDH) TaqMan assay (ThermoFisher cat #4351370) or Human Cyclophillin ([…]) TaqMan assay (ThermoFisher cat #4351372) • Total HTT detection was assessed utilizing human Htt TaqMan assay (ThermoFisher cat #4331182) • Allele-specific detection of human HTT expression in HD cells containing the SNP rs362331C/T (Exon 50): for each assay, allele-specific probes to detect the SNP variant contained locked nucleic acid bases to improve allele discrimination, as compared to unmodified DNA probes.
(§2) • qPCR was performed using Agpath ID one-step reverse transcriptase polymerase chain reaction (RT-PCR) reagent
(§3) Screening of HD molecules methods: GM09197 and/or GM04022 fibroblasts were cultured in T175 flasks incubated at 37° C. and 5% CO2. Once confluency was reached, the media was removed, the cells were washed with 1×PBS, and cells were dissociated using TrypLE™ Express Enzyme. Media was added to the enzyme and collected into a 15-mL conical tube and centrifuged at 500×g for 5 minutes to pellet the cells. Media and enzyme were aspirated using a serological pipette. Cells were resuspended in fresh media and counted using a Countess 3 Automated Cell Counter. Cells were plated at a density of 15,000 cells/well in a tissue culture-treated polystyrene 96-well dish and incubated at 37° C. and 5% CO2 overnight. The next day, media was removed using an 8-channel aspirator. 200 μL media/well are added back into the plate. The molecules are formulated to 1 mM and are dispensed using a Multidrop™ Pico 8 Digital Dispenser. After a 48-hour incubation with compounds, media was removed from plates, cells were washed with 1×PBS, and cells were lysed in 40 μL per well guanidinium thiocyanate buffer. RNA was isolated and purified in […] glass fiber column plates using chaotropic salts. Human mtHTT, wtHTT, and GAPDH mRNA were measured via RT-PCR using the ThermoFisher QuantStudio™ 7 Flex System in 384-well format. Results of HTT levels were normalized to GAPDH mRNA levels. Normalized HTT mRNA levels were expressed relative to vehicle-treated samples to assess fold change after molecule treatment.
(§4) Emin for each compound is the lowest % HTT concentration observed within a compound concentration of 0.5 nM to 1000 nM.

[2] = test system: human HTT mRNA, SNP rs362331 T allele, GM09197 fibroblasts; experiment: Screening of HD molecules in GM09197 fibroblasts, allele-specific HTT mRNA by RT-PCR, T allele; assay type: cell-based; details: for Gm09197 Emin 48 hr T Allele (%): Emin = lowest % HTT observed within compound concentration 0.5 nM to 1000 nM; for pIC50: Homo sapiens, Fibroblast, 48-hour incubation, T allele HTT mRNA normalized to GAPDH, relative to vehicle
Protocol: as §1, §2, §3, §4

Row | SMILES | GM 09197 E min 48 Hr C Allele (%) [1] | Gm09197 Emin 48 hr T Allele (%) [2] | pIC50 [2] | pIC50 [1]
1 | Cc1sc2c(c1C)C(c1ccc(Cl)cc1)=N[C@@H](CC(=O)Nc1ccc(OCCOCCOCCOCCOCCOCCOCCOCCOCCNC(=O)CCNC(=O)c3nc(NC(=O)c4cc(NC(=O)CCNC(=O)c5nc(NC(=O)CCCNC(=O)c6cc(NC(=O)c7nc(NC(=O)CCNC(=O)c8cc(NC(=O)c9nccn9C)cn8C)cn7C)cn6C)cn5C)cn4C)cn3C)cc1)c1nnc(C)n1-2 [Compound A-1] | A (A>90%) | C (C<80%) | 6.94 | 
2 | Cc1cc(F)cc(C)c1Oc1ccc(C(C)(C)O)cc1-c1cn(C)c(=O)c2[nH]c(C(=O)Nc3ccc(OCCOCCOCCOCCOCCOCCOCCOCCOCCNC(=O)CCNC(=O)c4nc(NC(=O)c5cc(NC(=O)CCNC(=O)c6nc(NC(=O)CCCNC(=O)c7cc(NC(=O)c8nc(NC(=O)CCNC(=O)c9cc(NC(=O)c%10nccn%10C)cn9C)cn8C)cn7C)cn6C)cn5C)cn4C)cc3)cc12 [Compound A-7] | A (A>90%) | A (A>90%) | < 6.00 | 
3 | CCS(=O)(=O)Nc1ccc(Oc2ccc(F)cc2F)c(-c2cn(C)c(=O)c3[nH]c(C(=O)Nc4ccc(OCCOCCOCCOCCOCCOCCOCCOCCOCCNC(=O)c5cc(NC(=O)c6nc(NC(=O)[C@H](N)CCNC(=O)c7cc(NC(=O)c8nc(NC(=O)CCNC(=O)c9cc(NC(=O)c%10nccn%10C)cn9C)cn8C)cn7C)cn6C)cn5C)cc4)cc23)c1 [Compound A-21] | A (A>90%) | A (A>90%) |  | 
4 | CC(=O)Nc1c(F)cc(C(=O)NC2CCC(O)CC2)cc1O[C@@H](C)c1cccc(OCCOCCOCCOCCOCCOCCOCCOCCOCCOCCOCCOCCOCCOCCOCCOCCNC(=O)CCNC(=O)c2nc(NC(=O)c3cc(NC(=O)CCNC(=O)c4nc(NC(=O)CCCNC(=O)c5cc(NC(=O)c6nc(NC(=O)CCNC(=O)c7cc(NC(=O)c8nccn8C)cn7C)cn6C)cn5C)cn4C)cn3C)cn2C)c1 (stereo partly drawn) [Compound A-31] | B (B is 90% to 80%) | B (B is 90% to 80%) |  | 
5 | CC(=O)Nc1c(F)cc(C(=O)N[C@H]2CC[C@H](O)CC2)cc1O[C@@H](C)c1cccc(C(=O)NCCOCCOCCOCCOCCOCCOCCOCCOCCOCCOCCOCCOCCOCCOCCOCCNC(=O)CCNC(=O)c2nc(NC(=O)c3cc(NC(=O)CCNC(=O)c4nc(NC(=O)CCCNC(=O)c5cc(NC(=O)c6nc(NC(=O)CCNC(=O)c7cc(NC(=O)c8nccn8C)cn7C)cn6C)cn5C)cn4C)cn3C)cn2C)c1 [Compound A-32] | B (B is 90% to 80%) | B (B is 90% to 80%) |  | 
6 | Cc1sc2c(c1C)C(c1ccc(Cl)cc1)=N[C@@H](CC(=O)Nc1ccc(OCCOCCOCCOCCOCCOCCOCCOCCOCCNC(=O)c3cc(NC(=O)c4nc(NC(=O)[C@H](N)CCNC(=O)c5cc(NC(=O)c6nc(NC(=O)CCNC(=O)c7cc(NC(=O)c8nccn8C)cn7C)cn6C)cn5C)cn4C)cn3C)cc1)c1nnc(C)n1-2 [Compound A-35] | A (A>90%) | B (B is 90% to 80%) |  | 
7 | CCS(=O)(=O)Nc1ccc(Oc2ccc(F)cc2F)c(-c2cn(C)c(=O)c3[nH]c(C(=O)Nc4ccc(OCCOCCOCCOCCOCCOCCOCCOCCOCCOCCOCCOCCOCCOCCOCCOCCNC(=O)c5cc(NC(=O)c6nc(NC(=O)[C@H](N)CCNC(=O)c7cc(NC(=O)c8nc(NC(=O)CCNC(=O)c9cc(NC(=O)c%10nccn%10C)cn9C)cn8C)cn7C)cn6C)cn5C)cc4)cc23)c1 [Compound A-36] | A (A>90%) | A (A>90%) |  | 
8 | Cc1sc2c(c1C)C(c1ccc(Cl)cc1)=N[C@@H](CC(=O)Nc1ccc(OCCOCCOCCOCCOCCOCCOCCOCCOCCNC(=O)c3cc(NC(=O)c4nc(NC(=O)c5cc(NC(=O)[C@@H](N)CCNC(=O)c6nc(NC(=O)CCNC(=O)c7cc(NC(=O)c8nccn8C)cn7C)cn6C)cn5C)cn4C)cn3C)cc1)c1nnc(C)n1-2 [Compound A-37] | B (B is 90% to 80%) | B (B is 90% to 80%) | < 6.00 | < 6.00
9 | Cc1sc2c(c1C)C(c1ccc(Cl)cc1)=N[C@@H](CC(=O)Nc1ccc(OCCOCCOCCOCCOCCOCCOCCOCCOCCOCCOCCOCCOCCOCCOCCOCCNC(=O)c3cc(NC(=O)c4nc(NC(=O)c5cc(NC(=O)[C@@H](N)CCNC(=O)c6nc(NC(=O)CCNC(=O)c7cc(NC(=O)c8nccn8C)cn7C)cn6C)cn5C)cn4C)cn3C)cc1)c1nnc(C)n1-2 [Compound A-38] | A (A>90%) | A (A>90%) |  | 
10 | CCS(=O)(=O)Nc1ccc(Oc2ccc(F)cc2F)c(-c2cn(C)c(=O)c3[nH]c(C(=O)Nc4ccc(OCCOCCOCCOCCOCCOCCOCCOCCOCCNC(=O)c5cc(NC(=O)c6nc(NC(=O)c7cc(NC(=O)[C@@H](N)CCNC(=O)c8nc(NC(=O)CCNC(=O)c9cc(NC(=O)c%10nccn%10C)cn9C)cn8C)cn7C)cn6C)cn5C)cc4)cc23)c1 [Compound A-39] | B (B is 90% to 80%) | B (B is 90% to 80%) |  | 
11 | CCS(=O)(=O)Nc1ccc(Oc2ccc(F)cc2F)c(-c2cn(C)c(=O)c3[nH]c(C(=O)Nc4ccc(OCCOCCOCCOCCOCCOCCOCCOCCOCCOCCOCCOCCOCCOCCOCCOCCNC(=O)c5cc(NC(=O)c6nc(NC(=O)c7cc(NC(=O)[C@@H](N)CCNC(=O)c8nc(NC(=O)CCNC(=O)c9cc(NC(=O)c%10nccn%10C)cn9C)cn8C)cn7C)cn6C)cn5C)cc4)cc23)c1 [Compound A-40] | A (A>90%) | A (A>90%) |  | 
12 | Cc1sc2c(c1C)C(c1ccc(Cl)cc1)=N[C@H](CC(=O)Nc1ccc(OCCOCCOCCOCCOCCOCCOCCOCCOCCOCCOCCOCCOCCOCCOCCOCCNC(=O)CCNC(=O)c3nc(NC(=O)c4cc(NC(=O)CCNC(=O)c5nc(NC(=O)CCCNC(=O)c6cc(NC(=O)c7nc(NC(=O)CCNC(=O)c8cc(NC(=O)c9nccn9C)cn8C)cn7C)cn6C)cn5C)cn4C)cn3C)cc1)c1nnc(C)n1-2 [Compound A-45] | C (C<80%) | C (C<80%) |  | 
13 | Cn1cc(NC(=O)c2nc(NC(=O)CCNC(=O)c3cc(NC(=O)c4nccn4C)cn3C)cn2C)cc1C(=O)NCCCC(=O)Nc1cn(C)c(C(=O)NCCC(=O)Nc2cc(C(=O)Nc3cn(C)c(C(=O)NCCC(=O)NCCOCCOCCOCCOCCN4C[C@H](Nc5cnn(C)c(=O)c5Br)C[C@H](c5ccccc5)C4)n3)n(C)c2)n1 [Compound A-47] | C (C<80%) | C (C<80%) | < 6.00 | < 6.00
14 | Cn1cc(NC(=O)c2nc(NC(=O)CCNC(=O)c3cc(NC(=O)c4nccn4C)cn3C)cn2C)cc1C(=O)NCCCC(=O)Nc1cn(C)c(C(=O)NCCC(=O)Nc2cc(C(=O)Nc3cn(C)c(C(=O)NCCC(=O)NCCOCCOCCOCCOCCOCCOCCOCCOCCN4C[C@H](Nc5cnn(C)c(=O)c5Br)C[C@H](c5ccccc5)C4)n3)n(C)c2)n1 [Compound A-48] | A (A>90%) | A (A>90%) |  | 
15 | Cn1cc(NC(=O)c2nc(NC(=O)CCNC(=O)c3cc(NC(=O)c4nccn4C)cn3C)cn2C)cc1C(=O)NCCCC(=O)Nc1cn(C)c(C(=O)NCCC(=O)Nc2cc(C(=O)Nc3cn(C)c(C(=O)NCCC(=O)NCCOCCOCCOCCOCCOCCOCCOCCOCCOCCOCCOCCOCCOCCOCCOCCN4C[C@H](Nc5cnn(C)c(=O)c5Br)C[C@H](c5ccccc5)C4)n3)n(C)c2)n1 [Compound A-49] | A (A>90%) | A (A>90%) |  | 
16 | Cc1noc(C)c1-c1ccc2c(c1)nc(CCc1ccc(OCCOCCOCCOCCOCCNC(=O)CCNC(=O)c3nc(NC(=O)c4cc(NC(=O)CCNC(=O)c5nc(NC(=O)CCCNC(=O)c6cc(NC(=O)c7nc(NC(=O)CCNC(=O)c8cc(NC(=O)c9nccn9C)cn8C)cn7C)cn6C)cn5C)cn4C)cn3C)c(Cl)c1)n2C[C@H](C)N1CCOCC1 [Compound A-52] | C (C<80%) | B (B is 90% to 80%) | < 6.00 | < 6.00
17 | Cc1noc(C)c1-c1ccc2c(c1)nc(CCc1ccc(OCCOCCOCCOCCOCCOCCOCCOCCOCCNC(=O)CCNC(=O)c3nc(NC(=O)c4cc(NC(=O)CCNC(=O)c5nc(NC(=O)CCCNC(=O)c6cc(NC(=O)c7nc(NC(=O)CCNC(=O)c8cc(NC(=O)c9nccn9C)cn8C)cn7C)cn6C)cn5C)cn4C)cn3C)c(Cl)c1)n2C[C@H](C)N1CCOCC1 [Compound A-53] | A (A>90%) | B (B is 90% to 80%) |  | 
